Where two headings read alike, the source gives them in different places.
Columns and labels:
[1] = target: T1, glutathione-S-transferase (GST) tagged LXRbeta LBD (ligand binding domain) (Homo sapiens, UniProt P55055); assay: LanthaScreen TR-FRET Liver X Receptor Coactivator Assay, co-activator recruitment to LXRbeta LBD; type: biochemical; settings: for Emax: read-out: LXR beta Activity @ max dose (%); for EC50: potency (Inflection Point, IP), co-activator recruitment to LXRbeta LBD, in relation to T0901317
T1 construct: purchased Invitrogen pv4658.pps
T1 sequence (P55055 222-460 limits assumed): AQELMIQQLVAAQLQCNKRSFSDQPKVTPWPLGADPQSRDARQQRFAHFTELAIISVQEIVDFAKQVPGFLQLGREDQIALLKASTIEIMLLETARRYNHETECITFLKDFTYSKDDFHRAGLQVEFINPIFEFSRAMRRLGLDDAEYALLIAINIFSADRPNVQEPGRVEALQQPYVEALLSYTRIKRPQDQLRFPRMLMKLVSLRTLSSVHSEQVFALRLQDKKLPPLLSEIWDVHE
How it was run: (§1)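 TR-FRET coactivator recruitment; compound + LBD, then fluorescein-coactivator peptide/Tb-anti-GST Ab mix; RT incubation; IP and Emax vs T0901317.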

[2] = target: T2, glutathione-S-transferase (GST) tagged LXRalpha LBD (ligand binding domain) (Homo sapiens, UniProt Q13133); assay: LanthaScreen TR-FRET Liver X Receptor Coactivator Assay, co-activator recruitment to LXRalpha LBD; type: biochemical; settings: for Emax: read-out: LXR alpha Activity @ max dose (%); for EC50 / LXR alpha IP (nM): potency (Inflection Point, IP), co-activator recruitment to LXRalpha LBD, in relation to T0901317; for EC50: read-out: LXR alpha IP
T2 construct: purchased Invitrogen pv4655
T2 sequence (Q13133 209-447 limits assumed): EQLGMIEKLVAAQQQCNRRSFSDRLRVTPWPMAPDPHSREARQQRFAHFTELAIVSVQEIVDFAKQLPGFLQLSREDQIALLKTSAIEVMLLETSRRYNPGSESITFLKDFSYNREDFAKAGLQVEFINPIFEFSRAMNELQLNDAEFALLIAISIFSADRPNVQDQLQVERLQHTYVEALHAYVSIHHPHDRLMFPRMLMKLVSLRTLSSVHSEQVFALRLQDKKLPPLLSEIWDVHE
How it was run: as §1

[3] = efficacy at max dose, in relation to reference dual agonist T0901317

Compound | Emax [1, 3] [%] | EC50 ([1]; read-out: LXR beta IP) [nM] | Emax [2, 3] [%] | EC50 [2] [nM] | LXR alpha IP (nM) [2] | EC50 ([1]; LXR beta IP (nM)) [nM] | Emax [1] [%] | Emax [2] [%]
COc1cc(C)cc([C@@](O)(C(=O)N2CCC(CC3CCN(c4ccc(C(=O)N(C)C)c(Cl)c4)CC3)CC2)C(F)(F)F)c1 [Example 2-107, 2-chloro-N,N-dimethyl-4-[4-({1-[(2R)-3,3,3-trifluoro-2-hydroxy-2-(3-methoxy-5-methylphenyl)propanoyl]piperidin-4-yl}methyl)piperidin-1-yl]benzamide] | 14 | 238 | 4 | 309 | – | – | – | –
CCOc1cccc([C@@](O)(C(=O)N2CCC(CC3CCN(c4ccc(C(=O)N(C)C)c(Cl)c4)CC3)CC2)C(F)F)c1 [Example 2-108, 2-chloro-4-[4-({1-[(2R)-2-(3-ethoxy-phenyl)-3,3-difluoro-2-hydroxy-propanoyl]piperidin-4-yl}methyl)piperidin-1-yl]-N,N-dimethyl-benzamide] | 10 | 33 | 0 | – | NO IP | – | – | –
CC(C)C(O)(C(=O)N1CCC(CC2CCN(c3ccc(C(=O)N(C)C)c(Cl)c3)CC2)CC1)c1ccccc1 (stereo not shown) [Example 2-109, 2-chloro-4-(4-{[1-(2-hydroxy-3-methyl-2-phenylbutanoyl)piperidin-4-yl]methyl}piperidin-1-yl)-N,N-dimethyl-benzamide] | 75 | 72 | 26 | 982 | – | – | – | –
CC[C@](O)(C(=O)N1CCC(CC2CCN(c3ccc(C(=O)N(C)C)c(Cl)c3)CC2)CC1)c1ccccc1 [Example 2-110, 2-chloro-4-[4-({1-[(2R)-2-hydroxy-2-phenylbutanoyl]piperidin-4-yl}methyl)piperidin-1-yl]-N,N-dimethyl-benzamide] | 50 | 54 | 17 | – | NO IP | – | – | –
Cc1cc(Cl)cc([C@@](O)(C(=O)N2CCC(CC3CCN(c4ccc(C(=O)N(C)C)c(Cl)c4)CC3)CC2)C(F)(F)F)c1 [Example 2-111, 2-chloro-4-[4-({1-[(2R)-2-(3-chloro-5-methylphenyl)-3,3,3-trifluoro-2-hydroxy-propanoyl]piperidin-4-yl}methyl)piperidin-1-yl]-N,N-dimethyl-benzamide] | 28 | 7 | 0 | – | NO IP | – | – | –
Cc1cccc([C@@](O)(C(=O)N2CCC(CC3CCN(c4ccc(C(=O)N(C)C)c(Cl)c4)CC3)CC2)C(F)(F)F)c1 [Example 2-112, 2-chloro-N,N-dimethyl-4-[4-({1-[(2R)-3,3,3-trifluoro-2-hydroxy-2-(3-methylphenyl)propanoyl]piperidin-4-yl}methyl)piperidin-1-yl]benzamide] | 44 | 8 | 10 | – | NO IP | – | – | –
CCc1cccc([C@@](O)(C(=O)N2CCC(CC3CCN(c4ccc(C(=O)N(C)C)c(Cl)c4)CC3)CC2)C(F)(F)F)c1 [Example 2-113, 2-chloro-4-[4-({1-[(2R)-2-(3-ethyl-phenyl)-3,3,3-trifluoro-2-hydroxy-propanoyl]piperidin-4-yl}methyl)piperidin-1-yl]-N,N-dimethyl-benzamide] | 36 | 15 | 4 | – | NO IP | – | – | –
COc1cccc([C@@](O)(C(=O)N2CCC(CC3CCN(c4ccc(C(=O)N(C)C)c(Cl)c4)CC3)CC2)C2CC2)c1 [Example 2-114, 2-chloro-4-[4-({1-[(2R)-2-cyclopropyl-2-hydroxy-2-(3-methoxy-phenyl)acetyl]piperidin-4-yl}methyl)piperidin-1-yl]-N,N-dimethyl-benzamide] | – | – | – | – | NO IP | 266 | 19 | 6
COc1cccc([C@@](O)(C(=O)N2CCC(CC3CCN(c4ccc(C(=O)N(C)C)c(Cl)c4)CC3)CC2)C(C)C)c1 [Example 2-115, 2-chloro-4-[4-({1-[(2R)-2-hydroxy-2-(3-methoxy-phenyl)-3-methyl-butanoyl]piperidin-4-yl}methyl)piperidin-1-yl]-N,N-dimethyl-benzamide] | 30 | 53 | 0 | – | NO IP | – | – | –
CN(C)C(=O)c1ccc(N2CCC(CC3CCN(C(=O)[C@](O)(c4cccc(OC(F)F)c4)C(F)(F)F)CC3)CC2)cc1Cl [Example 2-116, 2-chloro-4-{4-[(1-{(2R)-2-[3-(difluoro-methoxy)phenyl]-3,3,3-trifluoro-2-hydroxy-propanoyl}piperidin-4-yl)methyl]piperidin-1-yl}-N,N-dimethyl-benzamide] | 58 | 7 | 20 | 227 | – | – | – | –
CN(C)C(=O)c1ccc(N2CCC(CC3CCN(C(=O)[C@](N)(c4cc(Cl)cc(Cl)c4)C(F)(F)F)CC3)CC2)cc1Cl [Example 2-117, 4-[4-({1-[(2R)-2-amino-2-(3,5-dichloro-phenyl)-3,3,3-trifluoro-propanoyl]piperidin-4-yl}methyl)piperidin-1-yl]-2-chloro-N,N-dimethyl-benzamide] | 125 | 22 | 29 | 1010 | – | – | – | –
CN(C)C(=O)c1ccc(N2CCC(CC3CCN(C(=O)C(O)(c4ccccn4)C4CC4)CC3)CC2)cc1Cl (stereo not shown) [Example 2-118, 2-chloro-4-[4-({1-[cyclopropyl (hydroxy)pyridin-2-ylacetyl]piperidin-4-yl}methyl)piperidin-1-yl]-N,N-dimethyl-benzamide] | – | – | – | – | NO IP | 219 | 68 | 11
COc1cccc([C@](N)(C(=O)N2CCC(CC3CCN(c4ccc(C(=O)N(C)C)c(Cl)c4)CC3)CC2)C(F)(F)F)c1 [Example 2-119, 4-[4-({1-[(2S)-2-amino-3,3,3-trifluoro-2-(3-methoxy-phenyl)propanoyl]piperidin-4-yl}methyl)piperidin-1-yl]-2-chloro-N,N-dimethyl-benzamide] | 99 | 208 | 11 | – | NO IP | – | – | –
CN(C)C(=O)c1ccc(N2CCC(CC3CCN(C(=O)[C@](O)(c4cccc(CC#N)c4)C(F)(F)F)CC3)CC2)cc1Cl [Example 2-120, 2-chloro-4-{4-[(1-{(2R)-2-[3-(cyanomethyl)phenyl]-3,3,3-trifluoro-2-hydroxy-propanoyl}piperidin-4-yl)methyl]piperidin-1-yl}-N,N-dimethyl-benzamide] | 46 | 16 | 6 | – | NO IP | – | – | –
CN(C)C(=O)c1ccc(N2CCC(CC3CCN(C(=O)[C@](O)(c4cc(Cl)cc(Cl)c4)C(F)F)CC3)CC2)cc1Cl [Example 2-121, 2-chloro-4-[4-({1-[(2R)-2-(3,5-dichloro-phenyl)-3,3-difluoro-2-hydroxy-propanoyl]piperidin-4-yl}methyl)piperidin-1-yl]-N,N-dimethyl-benzamide] | 51 | 7 | 0 | – | NO IP | – | – | –
CN(C)C(=O)c1ccc(N2CCC(CC3CCN(C(=O)C(O)(c4cccc(F)c4)C(F)F)CC3)CC2)cc1Cl (stereo not shown) [Example 2-122, 2-chloro-4-[4-({1-[3,3-difluoro-2-(3-fluorophenyl)-2-hydroxy-propanoyl]piperidin-4-yl}methyl)piperidin-1-yl]-N,N-dimethyl-benzamide] | 69 | 27 | 29 | 543 | – | – | – | –
CN(C)C(=O)c1ccc(N2CCC(CC3CCN(C(=O)C(N)(c4ccccc4)C(F)(F)C(F)(F)F)CC3)CC2)cc1Cl (stereo not shown) [Example 2-123, 4-(4-{[1-(2-amino-3,3,4,4,4-pentafluoro-2-phenylbutanoyl)piperidin-4-yl]methyl}piperidin-1-yl)-2-chloro-N,N-dimethyl-benzamide] | 106 | 335 | 21 | 1470 | – | – | – | –
COc1cccc([C@@](O)(C(=O)N2CCC(CC3CCN(c4ccc(C(=O)N(C)C)cc4)CC3)CC2)C(F)(F)F)c1 [Example 2-124, N,N-dimethyl-4-[4-({1-[(2R)-3,3,3-trifluoro-2-hydroxy-2-(3-methoxy-phenyl)propanoyl]piperidin-4-yl}methyl)piperidin-1-yl]benzamide] | 55 | 43 | 4 | – | NO IP | – | – | –
CC(C)c1cccc([C@@](O)(C(=O)N2CCC(CC3CCN(c4ccc(C(=O)N(C)C)cc4)CC3)CC2)C(F)(F)F)c1 [Example 2-125, N,N-dimethyl-4-{4-[(1-{(2R)-3,3,3-trifluoro-2-hydroxy-2-[3-(1-methyl-ethyl)phenyl]propanoyl}piperidin-4-yl)methyl]piperidin-1-yl}benzamide] | 64 | 52 | 15 | 459 | – | – | – | –
